Reference: PubChem BioAssay (NCI)
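Results reflect a 48-hour exposure of cells in 96-well plates to compound at five concentrations. At the GI50, growth is halved. At the TGI there is no net growth.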

Key:
Experiment in all cases: DTP human tumour cell line panel, 48 h
[1] = test system: MDA-MB-435
[2] = test system: MALME-3M melanoma
[3] = test system: 786-0 renal
[4] = test system: PC-3 prostate
[5] = test system: T-47D breast
[6] = test system: BT-549 breast
[7] = test system: SF-539 CNS
[8] = test system: NCI-H460 lung
[9] = test system: SF-295 CNS
[10] = test system: CAKI-1 renal
[11] = test system: SW-620 colon
[12] = test system: CCRF-CEM leukemia
[13] = test system: SNB-75 CNS
[14] = test system: M14 melanoma
[15] = test system: HCT-116 colon
[16] = test system: IGROV1 ovarian
[17] = test system: UACC-62 melanoma
[18] = test system: EKVX NSCLC
[19] = test system: MCF7 breast
[20] = test system: A549 NSCLC
[21] = test system: SF-268 CNS
[22] = test system: K-562 leukemia
[23] = test system: HS 578T breast
[24] = test system: COLO 205 colon
[25] = test system: U251 CNS
[26] = test system: NCI-H226 lung
[27] = test system: UACC-257 melanoma
[28] = test system: KM12 colon
[29] = test system: UO-31 renal

O=c1ccc(N=Nc2ccccc2)ccc1Cl
TGI [1]: 29.6 µM | GI50 [2]: 3.57 µM | TGI [2]: 12.4 µM | GI50 [3]: 3.83 µM | TGI [3]: 13.6 µM | GI50 [4]: 5.16 µM | TGI [4]: 18.7 µM | GI50 [5]: 3.14 µM | TGI [5]: 26.4 µM | GI50 [6]: 3.22 µM | TGI [6]: 9.77 µM | GI50 [7]: 5.9 µM | TGI [7]: 18.3 µM | GI50 [8]: 15.4 µM | TGI [8]: 37.7 µM | GI50 [9]: 18.1 µM | TGI [9]: 46.6 µM | GI50 [10]: 13 µM | TGI [10]: 25.8 µM | GI50 [11]: 3.14 µM | TGI [11]: 12.8 µM | GI50 [12]: 1390 nM | TGI [12]: 26.7 µM | GI50 [13]: 15.9 µM | TGI [13]: 92.3 µM | GI50 [14]: 2630 nM | TGI [14]: 12.7 µM | GI50 [15]: 2610 nM | TGI [15]: 9.49 µM | GI50 [16]: 13.8 µM | TGI [16]: 27.4 µM | GI50 [17]: 12.7 µM | TGI [17]: 25.6 µM | GI50 [18]: 11.5 µM | TGI [18]: 29.1 µM | GI50 [19]: 3.16 µM | TGI [19]: 18 µM | GI50 [20]: 17 µM | TGI [20]: 38.7 µM | GI50 [21]: 18.8 µM | TGI [21]: 43.5 µM | GI50 [22]: 1000 nM | TGI [22]: > 100 µM | GI50 [23]: 21.4 µM | TGI [23]: 62.7 µM | GI50 [24]: 5.07 µM | TGI [24]: 18.4 µM | GI50 [25]: 2780 nM | TGI [25]: 9.29 µM | GI50 [26]: 19.6 µM | TGI [26]: 66.1 µM | GI50 [27]: 11.5 µM | TGI [27]: 24 µM | GI50 [28]: 12.7 µM | TGI [28]: 32.4 µM | GI50 [29]: 7.39 µM | TGI [29]: 20.7 µM
